Experiments:
Serum Cholesterol = assay: Serum cholesterol analysis in ovariectomized rats; format: in vivo, female Sprague Dawley rats (ovariectomized); conditions: Rattus norvegicus, 96 h, oral, daily for 4 days, OVX rats, read-out: Serum Cholesterol (% decrease vs. OVX)
From the text: (§1) Seventy-five day old female Sprague Dawley rats (weight range of 200 to 225 g) were obtained from Charles River Laboratories (Portage, Mich.). The animals were either bilaterally ovariectomized (OVX) or exposed to a Sham surgical procedure at Charles River Laboratories, and then shipped after one week. Upon arrival, they were housed in metal hanging cages in groups of 3 or 4 per cage and had ad libitum access to food (calcium content approximately 0.5%) and water for one week. Room temperature was maintained at 22.2°±1.7° C. with a minimum relative humidity of 40%. The photoperiod in the room was 12 hours light and 12 hours dark.
(§2) Dosing Regimen Tissue Collection. After a one week acclimation period (therefore, two weeks post-OVX) daily dosing with test compound was initiated. 17a-ethynyl estradiol or the test compound were given orally, unless otherwise stated, as a suspension in 1% carboxymethylcellulose or dissolved in 20% cyclodextrin. Animals were dosed daily for 4 days. Following the dosing regimen, animals were weighed and anesthetized with a ketamine: Xylazine (2:1, V:V) mixture and a blood sample was collected by cardiac puncture. The animals were then sacrificed by asphyxiation with CO2, the uterus was removed through a midline incision, and a wet uterine weight was determined.
Cholesterol Analysis. Blood samples were allowed to clot at room temperature for 2 hours, and serum was obtained following centrifugation for 10 minutes at 3000 rpm. Serum cholesterol was determined using a Boehringer Mannheim Diagnostics high performance cholesterol assay. Briefly the cholesterol was oxidized to cholest-4-en-3-one and hydrogen peroxide. The hydrogen peroxide was then reacted with phenol and 4-aminophenazone in the presence of peroxidase to produce a p-quinone imine dye, which was read spectrophotemetrically at 500 nm. Cholesterol concentration was then calculated against a standard curve. The entire assay was automated using a Biomek Automated Workstation.
(§3) The data presented in the Tables 1 below reflects the response of 5 to 6 rats per treatment.

[1] = tested on: MCF-7 breast adenocarcinoma cells; assay: MCF-7 Proliferation Assay (tritiated thymidine); format: cell-based; conditions: Homo sapiens, MCF7; MCF-7 cells, 48 hours, tritiated thymidine pulse 4 hours
Procedure: MCF-7 breast adenocarcinoma cells (ATCC HTB 22) were maintained in MEM (minimal essential medium, phenol red-free, Sigma, St. Louis, Mo.) supplimented with 10% fetal bovine serum […] (V/V), L-glutamine (2 mM), sodium pyruvate (1 mM), HEPES {(N-[2-hydroxyethyl]piperazine-N'-[2-ethanesulfonic acid]10 mM)}, non-essential amino acids and bovine insulin (1 ug/mL) (maintenance medium). Ten days prior to assay, MCF-7 cells were switched to maintenance medium supplemented with 10% dextran coated charcoal stripped fetal bovine serum (DCC-FBS) assay medium) in place of 10% FBS to deplete internal stores of steroids. MCF-7 cells were removed from maintenance flasks using cell dissociation medium (Ca++/Mg++ free HBSS (phenol red-free) supplemented with 10 mM HEPES and 2 mM EDTA). Cells were washed twice with assay medium and adjusted to 80,000 cells/mL. Approximately […] (8,000 cells) were added to flat-bottom microculture wells (Costar 3596) and incubated at 37° C. in a 5% CO2 humidified incubator for 48 hours to allow for cell adherence and equilibration after transfer. Serial dilutions of drugs or DMSO as a diluent control were prepared in assay medium and […] to triplicate microcultures followed by […] assay medium for a final volume of […]. After an additional 48 hours at 37° C. in a 5% CO2 humidified incubator, microcultures were pulsed with tritiated thymidine (1 uCi/well) for 4 hours. Cultures were terminated by freezing at -70° C. for 24 hours followed by thawing and harvesting of microcultures using a Skatron Semiautomatic Cell Harvester. Samples were counted by liquid scintillation using a Wallac BetaPlace b counter. Results in Table 3 below show the IC50 for certain compounds of the present invention.

[2] = tested on: Uterine Eosinophil Peroxidase (EPO); assay: Uterine Eosinophil Peroxidase (EPO) Assay; format: in vivo, female Sprague Dawley rats (ovariectomized); set-up: Uterine EPO (V. max): unit not given here; conditions: oral, daily for 4 days, OVX rats, 450 nm
From the text: as §1, §2
Uterine Eosinophil Peroxidase (EPO) Assay. Uteri were kept at 4° C. until time of enzymatic analysis. The uteri were then homogenized in 50 volumes of 50 mM Tris buffer (pH-8.0) containing 0.005% Triton X-100. Upon addition of 0.01% hydrogen peroxide and 10 mM O-phenylenediamine (final concentrations) in Tris buffer, increase in absorbance was monitored for one minute at 450 nm. The presence of eosonophils in the uterus is an indication of estrogenic activity of a compound. The maximal velocity of a 15 second interval was determined over the initial, linear portion of the reaction curve.
As is expressed in the below data, estrogenicity also was assessed by evaluating the adverse response of eosinophil infiltration into the uterus.
as §3

uterus = assay: Wet uterine weight in ovariectomized rats (post-menopausal model); format: in vivo, female Sprague Dawley rats (ovariectomized); conditions: Rattus norvegicus, 96 h, oral, daily for 4 days, OVX rats, read-out: Uterine Weight (% increase vs. OVX)
Procedure: In the examples illustrating the methods, a post-menopausal model was used in which effects of different treatments upon circulating lipids were determined.
as §1, §2, §3

Distal Femur Metaphysis = assay: Osteoporosis test, distal femur metaphysis X-ray image analysis; format: in vivo, female Sprague Dawley rats (ovariectomized); conditions: oral, daily for 35 days, in 20% hydroxypropyl b-cyclodextrin
From the text: Seventy-five day old female Sprague Dawley rats (weight range of 200 to 225 g) were obtained from Charles River Laboratories (Portage, Mich.). The animals were either bilaterally ovariectomized (OVX) or exposed to a Sham surgical procedure at Charles River Laboratories, and then shipped after one week. Upon arrival, they were housed in metal hanging cages in groups of 3 or 4 per cage and had ad libitum access to food (calcium content approximately 0.5%) and water for one week. Room temperature was maintained at 22.2°±1.7° C. with a minimum relative humidity of 40%. The photoperiod in the room was 12 hours light and 12 hours dark. Following the General Preparation Procedure, infra, the rats were treated daily for 35 days (6 rats per treatment group) and sacrificed by carbon dioxide asphyxiation on the 36th day. The 35 day time period was sufficient to allow maximal reduction in bone density, measured as described herein. At the time of sacrifice, the uteri were removed, dissected free of extraneous tissue, and the fluid contents were expelled before determination of wet weight in order to confirm estrogen deficiency associated with complete ovariectomy. […] The uteri were then placed in 10% neutral buffered formalin to allow for subsequent histological analysis. The right femurs were excised and digitilized x-rays generated and analyzed by an image analysis program (NIH image) at the distal metaphysis. The proximal aspect of the tibiae from these animals were also scanned by quantitative computed tomography. In accordance with the above procedures, compounds of the present invention and ethynyl estradiol (EE2) in 20% hydroxypropyl b-cyclodextrin were orally administered to test animals. Distal femur metaphysis data presented in Tables 2 and 3 below are the results of formula I compound treatments compared to intact and ovariectomized test animals. Results are reported as percent protection relative to ovariectomy.

Row | SMILES | inhibition in vivo at 0.1 mg/kg (Serum Cholesterol) | inhibition in vivo at 1 mg/kg (Serum Cholesterol) | IC50 [1] | Uterine EPO (V. max) ([2]; 0.1 mg/kg) | Uterine EPO (V. max) ([2]; 1.0 mg/kg) | change in vivo at 0.1 mg/kg (uterus) | change in vivo at 1 mg/kg (uterus) | inhibition in vivo at 10 mg/kg (Serum Cholesterol) | Uterine EPO (V. max) ([2]; 10.0 mg/kg) | change in vivo at 10 mg/kg (uterus) | inhibition in vivo at 0.01 mg/kg (Serum Cholesterol; 0.01 mg/kg) | Uterine EPO (V. max) ([2]; 0.01 mg/kg) | change in vivo at 0.01 mg/kg (uterus; 0.01 mg/kg) | Distal Femur Metaphysis (X-ray Image Analysis-Gray Score), percent protection relative to ovariectomy (Distal Femur Metaphysis; 0.01 mg/kg) | Distal Femur Metaphysis (X-ray Image Analysis-Gray Score), percent protection relative to ovariectomy (Distal Femur Metaphysis; 0.1 mg/kg) | Distal Femur Metaphysis (X-ray Image Analysis-Gray Score), percent protection relative to ovariectomy (Distal Femur Metaphysis; 1.0 mg/kg) | Distal Femur Metaphysis (X-ray Image Analysis-Gray Score), percent protection relative to ovariectomy (Distal Femur Metaphysis; 10.0 mg/kg)
1 | CC(C)(C)C(=O)Oc1ccc2c(c1)OC(c1ccc(OCCN3CCCCC3)cc1)c1c-2sc2cc(OC(=O)C(C)(C)C)ccc12 (stereo not drawn) [Example 4, 3,9-Bis(pivaloyloxy)-6-[4-[2-(1-piperidinyl)ethoxy]phenyl]-6-H-[1]benzothieno[3,2-c][1]benzopyran] | 62.6% | 48.2% | 5 nM | 3.3 | 3.3 | 10% | 15.3% |  |  |  |  |  |  |  |  |  | 
2 | O=S(=O)(Oc1ccc2c(c1)OC(c1ccc(OCCN3CCCCC3)cc1)c1c-2sc2cc(OS(=O)(=O)C(F)(F)F)ccc12)C(F)(F)F (stereo not drawn) [Example 6, 3,9-Bis(trifluoromethanesulfonyloxy)-6-[4-[2-(1-piperidinyl)ethoxy]phenyl]-6-H-[1]benzothieno[3,2-c][1]benzopyran] | -2.5% | 9.9% | 500 nM | 4.2 | 1.8 | 23% | 6.4% | -11.4% | 3.6 | 50% |  |  |  |  |  |  | 
3 | CCCCS(=O)(=O)Oc1ccc2c(c1)OC(c1ccc(OCCN3CCCCC3)cc1)c1c-2sc2cc(OS(=O)(=O)CCCC)ccc12 (stereo not drawn) [Example 5, 3,9-Bis(1-butylsulfonyloxy)-6-[4-[2-(1-piperidinyl)ethoxy]phenyl]-6-H-[1]benzothieno[3,2-c][1]benzopyran] | -9% | 61.3% | 1000 nM | 4.5 | 4.8 | -5.1% | 18.6% |  |  |  |  |  |  |  |  |  | 
4 | Oc1ccc2c(c1)CN(c1ccc(OCCN3CCCCC3)cc1)c1c-2ccc2cc(O)ccc12 [Example 14, 2,8-Dihydroxy-5-[4-[2-(1-piperidinyl)ethoxy]phenyl]-6H-benzo[c]phenanthridine] | 59.5% | 60.7% | 1 nM | 5.4 | 36.0 | 60% | 49.1% |  |  |  | 24.8% | 2.7 | -0.6% |  |  |  | 
5 | Oc1ccc2c(c1)OC(c1ccc(OCCN3CCCCC3)cc1)c1c-2sc2cc(O)ccc12 (stereo not drawn) [Example 1, 3,9-Dihydroxy-6-[4-[2-(1-piperidinyl)ethoxy]phenyl]-6-H-[1]benzothieno[3,2-c][1]benzopyran] | 72.8% | 51% | 0.2 nM | 7.8 | 3.0 | 25.3% | 9.2% | 54.6% | 2.1 | 5.9% |  |  |  | 14.2% | 49.8% | 51.7% | 48.2%

Source: US5726186A, “Pentacyclic compounds, intermediates, processes, compositions, and methods” (Eli Lilly and Company, priority 1996, dated 1998)
